Measured values taken from patent publication US20070248996A1, “Modulators of beta-amyloid peptide aggregation comprising D-amino acids” (Paraecis Pharmaceuticals, Inc., priority 1995, published 2007).
Read-outs that look alike come from different tables or passages of the source. Square brackets hold non-standard residues; d marks the D form. Peptide text beside a SMILES is read from it. * marks the point of attachment. Acetyl(3-pyridyl) = O=C(Cc1cccnc1)*; Benzoyl(4-OH) = O=C(c1ccc(O)cc1)*; d3Pal = N[C@H](Cc1cccnc1)C(=O)O

Key:
Aβ1-40 = Aβ1-40 (Homo sapiens, UniProt P05067); type: biochemical; set-up: ΔLag: unit not given here; settings: for ΔLag: Table XI
Sequence of Aβ1-40 (P05067 672-711): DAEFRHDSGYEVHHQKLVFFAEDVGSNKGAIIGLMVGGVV
Source text: The nucleation assay is employed to determine the ability of test compounds to alter (e.g. inhibit) the early events in formation of β-AP fibers from monomeric β-AP. Characteristic of a nucleated polymerization mechanism, a lag time is observed prior to nucleation, after which the peptide rapidly forms fibers as reflected in a linear rise in turbidity. The time delay before polymerization of β-AP monomer can be quantified as well as the extent of formation of insoluble fiber by light scattering (turbidity). Polymerization reaches equilibrium when the maximum turbidity reaches a plateau The turbidity of a solution of natural β-AP in the absence or presence of various concentrations of a β-amyloid modulator compound is determined by measuring the apparent absorbance of the solution at 405 nm (A405 nm) over time. The threshold of sensitivity for the measurement of turbidity is in the range of 15-20 μM β-AP. […] This assay can be performed using stirring or shaking to accelerate polymerization, thereby increasing the speed of the assay. Moreover the assay can be adapted to a 96-well plate format to screen multiple compounds.
HFIP-solubilized peptide is sonicated in a waterbath sonicator for 5 min at highest setting, then evaporated to dryness under a stream of argon. The peptide film is resuspended in anhydrous dimethylsulfoxide (DMSO) at a concentration of 6.9 mg/ml (25× concentration), sonicated for 5 min as before, then filtered through a 0.2 micron nylon syringe filter (VWR cat. No.28196-050). Test compounds are dissolved in DMSO at a 100× concentration. […] Ten microliters of the mixture is then added to the bottom of a well of a Corning Costar ultra low binding 96-well plate (Coming Costar, Cambridge Mass.; cat. No. 2500). Ninety microliters of water is added to the well, the plate is shaken on a rotary shaken at a constant speed at room temperature for 30 seconds, an additional 100 μl of 2× PTL buffer (20 mM NaH2PO4, 300 mM NaCl, pH 7.4) is added to the well, the plate is reshaken for 30 seconds and a baseline (t=0) turbidity reading is taken by measuring the apparent absorbance at 405 nm using a Bio-Rad Model 450 Microplate Reader. The plate is then returned to the shaker and shaken continuously for 5 hours. Turbidity readings are taken at 15 minute intervals.
β-amyloid aggregation in the absence of any modulators results in enhanced turbidity of the natural β-AP solution (i.e., an increase in the apparent absorbance at 405 nm over time). […]

[1] = Safety profile for PPI-558, daily subcutaneous injection for 14 days; settings: female rats, 3 and 30 mg/kg s.c. daily for 14 days
Description: On day 15, animals were sacrificed 1 hour post administration.

[2] = Brain uptake of tritium-labelled PPI-558 after subcutaneous injection; settings: male rats, single subcutaneous injection 4.6 mg/kg, 2 hours (FIG. 4)
Description: Male Sprague-Dawley rats (259-280 g) received a single subcutaneous injection in the nape of the neck (4.6 mg/kg at 1 ml/kg=4.6 mg/ml in 100% Sesame Oil). At various time points post administration (2, 8 and 24 hours; n=4/time point), the animlas were anesthetized. Trunk blood was taken to determine plasma levels of the parent compound and the left side of the brain was perfused with 1 ml of saline over 30 seconds via the left sommon carotid artery. The brain was rapidly removed and the left forebrain (perfused) was subjected to capillary depletion.

[3] = Modulator compound stability in cerebrospinal fluid; settings: 75% Rhesus monkey CSF, 37° C., 24 hours, HPLC; compared with PPI-368 (FIG. 1)
Description: The stability of a modulator compound in cerebrospinal fluid (CSF) can be assayed in an in vitro assay as follows. […] All sample handling is carried out in a laminar flow hood and test solutions are maintained at 37° C. during the assay. […] Samples (at the 0 time point and the 24 hour time point) are analyzed at room temperature using reverse-phase HPLC. A microbore column is used to maximize sensitivity. The parameters for analytical HPLC are as follows:
Chromatographic analysis is performed using a Hewlett Packard 1090 series II HPLC. The column used for separation is a C4, 5 μm, 1×250 mm (Vydac #214TP51). The flow rate is 50 μL/min and the elution profile of the test compounds is monitored at 214, 230, 260 and 280 nm.

[4] = Table V, hydroxylated and oxygenated modifying groups, 5 μM test compound

4-Hydroxybenzoyl-D-Leu-D-Val-D-Phe-D-Phe-D-Ala-NH2 [PPI-558]
ΔLag 5 μM (Aβ1-40; Table VIII, 5 μM test compound): 2.0
overt toxicity [1]: No overt toxicity was observed
ratio of brain versus plasma levels [2]: almost twice

CC(C)C[C@@H](NC(=O)CC[C@@H](C)[C@H]1CC[C@H]2[C@@H]3[C@H](O)C[C@@H]4C[C@H](O)CC[C@]4(C)[C@H]3C[C@H](O)[C@]12C)C(=O)N[C@@H](C(=O)N[C@H](Cc1ccccc1)C(=O)N[C@H](Cc1ccccc1)C(=O)N[C@H](C)C(=O)O)C(C)C [PPI-433, cholyl-D-Leu-D-Val-D-Phe-D-Phe-D-Ala-OH]
stability in cerebrospinal fluid [3]: significantly greater stability in CSF than the L-amino acid-based compound

CC(C)C[C@@H](NC(=O)[C@H](NC(=O)[C@@H](Cc1ccccc1)NC(=O)[C@@H](Cc1ccccc1)NC(=O)[C@@H](C)NC(=O)Cc1cccnc1)C(C)C)C(N)=O [PPI-730, 3-Pyridylacetyl-d(AFFVL)-nh2] ({Acetyl(3-pyridyl)}-[dA][dF][dF][dV][dL]-NH2)
ΔLag (Aβ1-40; 5 μM test compound): 2

(±)-Mandelyl-d(LVFF)-nh2 [PPI-482 (isomer 2)]
ΔLag 5 μM (Aβ1-40; [4]): 1.6

4-Hydroxyphenylacetyl-d(LVFFA)-nh2 [PPI-559]
ΔLag 5 μM (Aβ1-40; Table VIII, 5 μM test compound): 3.5

3,5-Dihydroxy-2-naphthoyl-d(AFFVL)-nh2 [PPI-568]
ΔLag 5 μM (Aβ1-40; Table IX, 5 μM test compound): >6

3-(2-Hydroxyphenyl)propionyl-d(AFFVL)-nh2 [PPI-610]
ΔLag 5 μM (Aβ1-40; Table IX, 5 μM test compound): 4.5

H-d(LVFFL)-nh2 [PPI-655]
ΔLag 5 μM (Aβ1-40; Table X, 5 μM test compound): >6

CC(C)C[C@@H](NC(=O)c1ccc(O)cc1)C(=O)N[C@@H](C(=O)N[C@H](Cc1ccc(O)cc1)C(=O)N[C@H](Cc1ccc(O)cc1)C(=O)N[C@H](C)C(N)=O)C(C)C [PPI-775, 4-Hydroxybenzoyl-d(LVYYA)-nh2] ({Benzoyl(4-OH)}-[dL][dV][dY][dY][dA]-NH2)
ΔLag (Aβ1-40; 5 μM test compound): 1

Butanoyl-d(LVFFA)-nh2 [PPI-525]
ΔLag 5 μM (Aβ1-40; Table IV, hydrophobic modifying groups, 5 μM test compound): 1.0

3,7-Dihydroxy-2-naphthoyl-d(FFFVL)-nh2 [PPI-650]
ΔLag 5 μM (Aβ1-40; Table IX, 5 μM test compound): 2.2

Lithocholyl-LVFFA-oh [PPI-425]
ΔLag 5 μM (Aβ1-40; Table III, modifying groups derived from bile acids, 5 μM test compound): 1.4

D-3-Phenyllactyl-d(FFFVL)-nh2 [PPI-635]
ΔLag 5 μM (Aβ1-40; Table IX, 5 μM test compound): 2.5

H-d(LFFFL)-nh2 [PPI-638]
ΔLag 5 μM (Aβ1-40; Table X, 5 μM test compound): >6

H-d(FFVL)-nh2 [PPI-602]
ΔLag 5 μM (Aβ1-40; Table X, 5 μM test compound): 1.6

CC(C)C[C@@H](NC(=O)[C@H](NC(=O)[C@@H](Cc1ccccc1)NC(=O)[C@@H](Cc1ccccc1)NC(=O)[C@@H](Cc1cccnc1)NC(=O)c1ccc(O)cc1)C(C)C)C(N)=O [PPI-665, 4-Hydroxybenzoyl-d(Pal-FFVL)-nh2] ({Benzoyl(4-OH)}-[d3Pal][dF][dF][dV][dL]-NH2)
ΔLag (Aβ1-40; 0.5 μM test compound): 1.5
ΔLag (Aβ1-40; 5 μM test compound): 2

CA-d(LVF(IY)A)-oh [PPI-463]
ΔLag 2 μM (Aβ1-40; Table II, second series, different stock of Aβ1-40, 2 μM test compound): >2.7
ΔLag 3 μM (Aβ1-40; Table II, second series, different stock of Aβ1-40, 3 μM test compound): >2.7
ΔLag 4 μM (Aβ1-40; Table II, second series, different stock of Aβ1-40, 4 μM test compound): >2.7
ΔLag 5 μM (Aβ1-40; Table II, second series, different stock of Aβ1-40, 5 μM test compound): >2.7

Glycolyl-d(FFFVL)-nh2 [PPI-596]
ΔLag 5 μM (Aβ1-40; Table IX, 5 μM test compound): 3.6
ΔLag 5 μM (Aβ1-40; [4]): 3.6
